Reference: patent US8952024B2, “Herbicidal pyrimidone derivatives” (E I du Pont de Nemours and Company, priority 2009, dated 2015)

Experiments:
Type in all cases: in vivo
[1] = system: blackgrass (Alopecurus myosuroides); assay: Test B pre-/postemergence plant response
In short: (§1)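 Visually scored on a 0 to 100 scale after 13 to 15 days in greenhouse versus controls. Treatments were preemergence on seeded loam/sand soil and postemergence on 1- to 4-leaf plants.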

[2] = system: ragweed (common ragweed, Ambrosia elatior); assay: Test B pre-/postemergence plant response
In short: as §1

[3] = system: soybean (Glycine max); assay: Test B pre-/postemergence plant response
In short: as §1

[4] = system: kochia (Kochia scoparia); assay: Test B pre-/postemergence plant response
In short: as §1

[5] = system: yellow nutsedge (Cyperus esculentus); assay: Test B pre-/postemergence plant response
In short: as §1

[6] = system: giant foxtail (Setaria faberii); assay: Test B pre-/postemergence plant response
In short: as §1

[7] = system: morningglory (Ipomoea coccinea); assay: Test B pre-/postemergence plant response
In short: as §1

[8] = system: wild oat (Avena fatua); assay: Test B pre-/postemergence plant response
In short: as §1

[9] = system: green foxtail (Setaria viridis); assay: Test B pre-/postemergence plant response
In short: as §1

[10] = system: wheat (Triticum aestivum); assay: Test B pre-/postemergence plant response
In short: as §1

[11] = system: cocklebur (Xanthium strumarium); assay: Test B pre-/postemergence plant response
In short: as §1

[12] = system: velvetleaf (Abutilon theophrasti); assay: Test B pre-/postemergence plant response
In short: as §1

[13] = system: johnsongrass (Sorghum halepense); assay: Test B pre-/postemergence plant response
In short: as §1

[14] = system: downy bromegrass (Bromus tectorum); assay: Test B pre-/postemergence plant response
In short: as §1

[15] = system: bermudagrass (Cynodon dactylon); assay: Test B pre-/postemergence plant response
In short: as §1

[16] = system: windgrass (Apera spica-venti); assay: Test B postemergence plant response
In short: (§2)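 Plants at the 1- to 4-leaf stage (2 to 18 cm tall), grown in pots of peat moss/vermiculite medium with wetting agent and starter nutrients, received postemergence applications of test chemicals. After 13 to 15 days in a greenhouse, injury was rated visually against untreated controls on a 0 (no effect) to 100 (complete control) scale.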

[17] = system: chickweed (Stellaria media); assay: Test B postemergence plant response
In short: as §2

[18] = system: canarygrass (Phalaris minor); assay: Test B postemergence plant response
In short: as §2

[19] = 31 g ai/ha, postemergence, scale 0 to 100, 0 is no effect, 100 is complete control
[20] = 62 g ai/ha, postemergence, 0 is no effect, 100 is complete control, 13 to 15 days
[21] = Postemergence, 125 g ai/ha, visual rating after 13 to 15 days, scale 0 (no effect) to 100 (complete control)
[22] = Postemergence, 250 g ai/ha, scale 0 to 100 (0 no effect, 100 complete control)

Question: With `CCCn1c(-c2ccsc2)ncc(C(=O)C2=C(O)CCCC2=O)c1=O` [Compound 93] as the molecule, how does the “Plant response rating, Blackgrass” value [1, 19] read?
Answer: Its value is 0.

Question: And the “Blackgrass plant response rating (0 to 100 scale)” value [1, 20]?
Answer: Its value is 5.

Question: What about the “Plant response rating, Blackgrass” value [1, 21] of the same molecule?
Answer: The value was 30.

Question: And the “Plant response rating, Blackgrass” value [1, 22]?
Answer: The value was 30.

Question: What about the “Plant response rating, Ragweed” value [2, 19] of the same molecule?
Answer: The value was 65.

Question: And the “Ragweed plant response rating (0 to 100 scale)” value [2, 20]?
Answer: The value was 75.

Question: And the “Plant response rating, Ragweed” value [2, 22]?
Answer: Its value is 98.

Question: And the “Plant response rating, Soybean” value [3, 19]?
Answer: The value was 55.

Question: What about the “Soybean plant response rating (0 to 100 scale)” value [3, 20] of the same molecule?
Answer: Its value is 80.

Question: What about the “Plant response rating, Soybean” value [3, 22] of the same molecule?
Answer: The value was 98.

Question: What about the “Plant response rating, Kochia” value [4, 19] of the same molecule?
Answer: Its value is 65.

Question: And the “Kochia plant response rating (0 to 100 scale)” value [4, 20]?
Answer: The value was 85.

Question: What about the “Plant response rating, Kochia” value [4, 22] of the same molecule?
Answer: The value was 98.

Question: What about the “Plant response rating, Nutsedge, Yellow” value [5, 19] of the same molecule?
Answer: The value was 45.

Question: And the “Nutsedge, Yellow plant response rating (0 to 100 scale)” value [5, 20]?
Answer: Its value is 60.

Question: What about the “Plant response rating, Nutsedge, Yellow” value [5, 22] of the same molecule?
Answer: The value was 70.

Question: What about the “Plant response rating, Foxtail, Giant” value [6, 19] of the same molecule?
Answer: Its value is 70.

Question: What about the “Foxtail, Giant plant response rating (0 to 100 scale)” value [6, 20] of the same molecule?
Answer: Its value is 80.

Question: What about the “Plant response rating, Foxtail, Giant” value [6, 22] of the same molecule?
Answer: Its value is 85.

Question: And the “Plant response rating, Morningglory” value [7, 19]?
Answer: The value was 70.

Question: What about the “Morningglory plant response rating (0 to 100 scale)” value [7, 20] of the same molecule?
Answer: The value was 80.

Question: And the “Plant response rating, Morningglory” value [7, 22]?
Answer: The value was 100.

Question: And the “Plant response rating, Oat, Wild” value [8, 19]?
Answer: Its value is 0.

Question: And the “Oat, Wild plant response rating (0 to 100 scale)” value [8, 20]?
Answer: Its value is 0.

Question: And the “Plant response rating, Oat, Wild” value [8, 22]?
Answer: The value was 5.

Question: What about the “Plant response rating, Foxtail, Green” value [9, 19] of the same molecule?
Answer: Its value is 50.

Question: And the “Foxtail, Green plant response rating (0 to 100 scale)” value [9, 20]?
Answer: Its value is 60.

Question: What about the “Plant response rating, Foxtail, Green” value [9, 22] of the same molecule?
Answer: Its value is 90.

Question: What about the “Plant response rating, Wheat” value [10, 19] of the same molecule?
Answer: Its value is 0.

Question: And the “Wheat plant response rating (0 to 100 scale)” value [10, 20]?
Answer: Its value is 0.

Question: What about the “Plant response rating, Wheat” value [10, 22] of the same molecule?
Answer: The value was 5.

Question: And the “Plant response rating, Cocklebur” value [11, 19]?
Answer: The value was 70.

Question: What about the “Cocklebur plant response rating (0 to 100 scale)” value [11, 20] of the same molecule?
Answer: The value was 90.

Question: And the “Plant response rating, Cocklebur” value [11, 21]?
Answer: The value was 95.

Question: And the “Plant response rating, Cocklebur” value [11, 22]?
Answer: The value was 98.

Question: And the “Plant response rating, Velvetleaf” value [12, 19]?
Answer: The value was 85.

Question: What about the “Velvetleaf plant response rating (0 to 100 scale)” value [12, 20] of the same molecule?
Answer: Its value is 90.

Question: And the “Plant response rating, Velvetleaf” value [12, 22]?
Answer: Its value is 98.

Question: And the “Plant response rating, Johnsongrass” value [13, 19]?
Answer: Its value is 10.

Question: And the “Johnsongrass plant response rating (0 to 100 scale)” value [13, 20]?
Answer: The value was 10.

Question: What about the “Plant response rating, Johnsongrass” value [13, 22] of the same molecule?
Answer: The value was 70.

Question: And the “Plant response rating, Bromegrass, Downy” value [14, 19]?
Answer: Its value is 0.

Question: What about the “Bromegrass, Downy plant response rating (0 to 100 scale)” value [14, 20] of the same molecule?
Answer: The value was 0.

Question: And the “Plant response rating, Bromegrass, Downy” value [14, 21]?
Answer: Its value is 0.

Question: And the “Plant response rating, Bromegrass, Downy” value [14, 22]?
Answer: Its value is 0.

Question: What about the “Plant response rating, Bermudagrass” value [15, 19] of the same molecule?
Answer: Its value is 60.

Question: And the “Bermudagrass plant response rating (0 to 100 scale)” value [15, 20]?
Answer: Its value is 75.

Question: What about the “Plant response rating, Bermudagrass” value [15, 21] of the same molecule?
Answer: The value was 85.

Question: And the “Plant response rating, Bermudagrass” value [15, 22]?
Answer: Its value is 85.

Question: And the “Plant response rating, Windgrass” value [16, 19]?
Answer: Its value is 5.

Question: What about the “Windgrass plant response rating (0 to 100 scale)” value [16, 20] of the same molecule?
Answer: The value was 10.

Question: And the “Plant response rating, Windgrass” value [16, 22]?
Answer: The value was 55.

Question: And the “Plant response rating, Chickweed” value [17, 19]?
Answer: Its value is 80.

Question: What about the “Chickweed plant response rating (0 to 100 scale)” value [17, 20] of the same molecule?
Answer: Its value is 80.

Question: What about the “Plant response rating, Chickweed” value [17, 21] of the same molecule?
Answer: Its value is 95.

Question: What about the “Plant response rating, Chickweed” value [17, 22] of the same molecule?
Answer: Its value is 98.

Question: And the “Plant response rating, Canarygrass” value [18, 19]?
Answer: The value was 0.

Question: And the “Canarygrass plant response rating (0 to 100 scale)” value [18, 20]?
Answer: Its value is 0.

Question: What about the “Plant response rating, Canarygrass” value [18, 21] of the same molecule?
Answer: The value was 5.

Question: What about the “Plant response rating, Canarygrass” value [18, 22] of the same molecule?
Answer: The value was 10.
